Columns and labels:
[1] = target: T1, Cyclooxygenase (Rattus norvegicus, UniProt P35355+Q63921); assay: Inhibitory activity against Cyclooxygenase (COX) using broken rat […] leukemia cells (RBL-1); assay type: cell-based
T1 sequence (P35355 whole entry): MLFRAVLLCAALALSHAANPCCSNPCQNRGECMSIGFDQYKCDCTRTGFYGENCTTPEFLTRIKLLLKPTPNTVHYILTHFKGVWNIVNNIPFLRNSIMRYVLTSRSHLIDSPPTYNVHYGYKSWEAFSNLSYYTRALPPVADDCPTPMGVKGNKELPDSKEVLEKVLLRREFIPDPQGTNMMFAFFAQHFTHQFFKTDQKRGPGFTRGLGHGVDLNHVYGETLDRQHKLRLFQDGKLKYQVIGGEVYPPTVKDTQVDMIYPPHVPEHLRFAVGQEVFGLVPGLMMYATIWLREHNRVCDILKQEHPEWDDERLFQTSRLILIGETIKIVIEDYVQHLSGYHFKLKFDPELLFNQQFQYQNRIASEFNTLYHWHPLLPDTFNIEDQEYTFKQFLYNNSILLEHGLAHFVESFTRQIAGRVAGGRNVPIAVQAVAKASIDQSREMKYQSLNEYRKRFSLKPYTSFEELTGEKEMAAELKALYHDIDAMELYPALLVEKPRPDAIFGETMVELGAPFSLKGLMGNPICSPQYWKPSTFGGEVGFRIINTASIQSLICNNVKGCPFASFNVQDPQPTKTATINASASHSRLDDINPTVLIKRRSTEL
T1 sequence (Q63921 whole entry): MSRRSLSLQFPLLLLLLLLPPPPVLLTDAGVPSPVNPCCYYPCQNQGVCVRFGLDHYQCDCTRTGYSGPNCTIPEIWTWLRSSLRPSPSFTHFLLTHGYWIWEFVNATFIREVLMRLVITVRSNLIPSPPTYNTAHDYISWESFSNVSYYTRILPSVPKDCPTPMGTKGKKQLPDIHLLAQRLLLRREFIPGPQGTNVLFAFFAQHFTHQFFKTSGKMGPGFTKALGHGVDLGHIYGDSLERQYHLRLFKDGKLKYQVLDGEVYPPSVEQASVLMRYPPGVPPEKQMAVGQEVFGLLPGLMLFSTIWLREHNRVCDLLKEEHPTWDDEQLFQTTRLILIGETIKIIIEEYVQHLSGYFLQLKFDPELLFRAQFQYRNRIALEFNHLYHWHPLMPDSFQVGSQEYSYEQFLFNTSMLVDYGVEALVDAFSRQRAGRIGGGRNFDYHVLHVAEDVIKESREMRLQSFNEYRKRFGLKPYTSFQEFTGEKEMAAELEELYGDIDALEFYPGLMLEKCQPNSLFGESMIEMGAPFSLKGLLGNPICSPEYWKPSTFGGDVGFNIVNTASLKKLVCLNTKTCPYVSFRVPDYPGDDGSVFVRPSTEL

[2] = target: T1, Cyclooxygenase; assay: Inhibitory activity against cyclooxygenase (COX) in intact rat […] leukemia cells (RBL-1); assay type: cell-based
[3] = target: T2, Prostaglandin G/H synthase 1 (Ovis aries) (UniProt P05979); assay: Inhibitory activity against Cyclooxygenase using sheep seminal vesicle (SSV) enzyme (COX-1)at 10 uM; assay type: tissue-based
T2 sequence (whole entry): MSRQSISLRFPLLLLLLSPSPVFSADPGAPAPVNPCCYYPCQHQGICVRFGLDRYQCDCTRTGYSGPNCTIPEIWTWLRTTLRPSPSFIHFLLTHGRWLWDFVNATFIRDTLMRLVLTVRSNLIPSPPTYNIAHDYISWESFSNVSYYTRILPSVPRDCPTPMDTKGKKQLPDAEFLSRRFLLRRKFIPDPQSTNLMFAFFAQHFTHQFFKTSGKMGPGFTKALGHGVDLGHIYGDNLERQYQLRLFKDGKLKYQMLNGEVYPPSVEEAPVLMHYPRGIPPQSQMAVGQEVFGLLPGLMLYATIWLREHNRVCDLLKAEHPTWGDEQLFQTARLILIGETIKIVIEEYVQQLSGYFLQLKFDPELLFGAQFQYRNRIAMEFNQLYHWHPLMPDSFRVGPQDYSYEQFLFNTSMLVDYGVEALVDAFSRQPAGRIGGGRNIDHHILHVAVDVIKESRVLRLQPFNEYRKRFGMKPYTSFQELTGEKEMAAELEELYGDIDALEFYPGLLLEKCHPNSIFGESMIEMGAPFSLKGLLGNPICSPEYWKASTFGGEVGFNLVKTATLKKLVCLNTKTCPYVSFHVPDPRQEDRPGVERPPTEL

[4] = target: T3, Polyunsaturated fatty acid 5-lipoxygenase (Rattus norvegicus) (UniProt P12527); assay: Inhibitory activity against 5-lipoxygenase (5-LO) using broken rat […] leukemia cells (RBL-1)at 10 uM; assay type: cell-based
T3 sequence (whole entry): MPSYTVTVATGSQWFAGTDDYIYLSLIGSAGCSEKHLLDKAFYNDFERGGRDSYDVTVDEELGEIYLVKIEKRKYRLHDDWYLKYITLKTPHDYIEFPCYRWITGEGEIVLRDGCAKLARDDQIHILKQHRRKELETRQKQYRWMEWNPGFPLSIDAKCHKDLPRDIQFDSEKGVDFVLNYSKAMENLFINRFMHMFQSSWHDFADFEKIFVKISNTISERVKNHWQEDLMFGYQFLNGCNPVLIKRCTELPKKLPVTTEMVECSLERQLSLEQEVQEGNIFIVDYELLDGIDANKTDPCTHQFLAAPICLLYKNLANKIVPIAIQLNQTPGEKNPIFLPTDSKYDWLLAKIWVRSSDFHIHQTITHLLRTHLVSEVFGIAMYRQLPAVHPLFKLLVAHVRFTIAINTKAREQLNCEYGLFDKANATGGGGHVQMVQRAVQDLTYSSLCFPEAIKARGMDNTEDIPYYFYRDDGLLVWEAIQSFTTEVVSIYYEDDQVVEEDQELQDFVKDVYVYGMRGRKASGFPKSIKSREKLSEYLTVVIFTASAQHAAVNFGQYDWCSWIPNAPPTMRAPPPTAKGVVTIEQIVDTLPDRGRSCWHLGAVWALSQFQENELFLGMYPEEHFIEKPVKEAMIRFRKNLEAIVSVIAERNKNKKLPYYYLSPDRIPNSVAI

[5] = target: T2, Prostaglandin G/H synthase 1 (Ovis aries); assay: Inhibitory activity against Cyclooxygenase using sheep seminal vesicle (SSV) enzyme (COX-1) at 10 uM; assay type: tissue-based
[6] = target: T3, Polyunsaturated fatty acid 5-lipoxygenase (Rattus norvegicus); assay: Inhibitory activity against 5-lipoxygenase (5-LO) using broken rat […] leukemia cells (RBL-1) at 10 uM; assay type: cell-based
[7] = target: Cyclooxygenase (Rattus norvegicus) (UniProt P35355+Q63921); assay: Inhibitory activity against Cyclooxygenase (COX) using broken rat […] leukemia cells (RBL-1) at 10 uM; assay type: cell-based

| SMILES | IC50 [1] | IC50 [2] | inhibition [3] | inhibition [4] | inhibition [5] | inhibition [6] | inhibition [7] |
| --- | --- | --- | --- | --- | --- | --- | --- |
| CCC(C#Cc1cc(-c2ccc(C)cc2)n(-c2ccc(OC)cc2)n1)N(O)C(C)=O (stereo unspecified) | 0.01 µM | 0.22 µM | – | – | – | – | – |
| CCCNC(=O)N(O)C(C)C#Cc1cc(-c2ccc(Cl)cc2)n(-c2ccc(OC)cc2)n1 (stereo unspecified) | – | – | 14% | 82% | – | – | – |
| COc1ccc(-n2nc(C#CC(C)N(O)C(C)=O)cc2-c2ccc(C)cc2)cc1 (stereo unspecified) | 0.01 µM | 0.11 µM | – | – | – | – | – |
| CCOC(=O)CCC(=O)N(O)C(C)C#Cc1cc(-c2ccc(C)cc2)n(-c2ccc(OC)cc2)n1 (stereo unspecified) | – | 10 µM | – | 97% | – | – | – |
| COc1ccc(-n2nc(C#CC(C)N(O)C(=O)c3ccccc3)cc2-c2ccc(Cl)cc2)cc1 (stereo unspecified) | 14.9 µM | 5.5 µM | – | – | 5% | – | – |
| COc1ccc(-n2nc(C#CC(C)N(O)C(=O)C(C)C)cc2-c2ccc(C)cc2)cc1 (stereo unspecified) | 0.04 µM | 0.09 µM | – | – | – | – | – |
| COc1ccc(-n2nc(C#CC(C)N(O)C(=O)N3CCOCC3)cc2-c2ccc(Cl)cc2)cc1 (stereo unspecified) | – | 1.6 µM | 14% | – | – | – | – |
| COC(=O)N(O)CC#Cc1cc(-c2ccc(C)cc2)n(-c2ccc(OC)cc2)n1 | – | 0.28 µM | – | 100% | 74% | – | – |
| COC(=O)N(O)C(C)C#Cc1cc(-c2ccc(Cl)cc2)n(-c2ccc(OC)cc2)n1 (stereo unspecified) | – | 0.29 µM | – | – | – | 77% | 84% |
| COc1ccc(-n2nc(C#CC(C(C)C)N(O)C(N)=O)cc2-c2ccc(Cl)cc2)cc1 (stereo unspecified) | – | 14.5 µM | – | 90% | 38% | – | – |
| COc1ccc(-n2nc(C#CC(C)N(O)C(=O)c3cccnc3)cc2-c2ccc(C)cc2)cc1 (stereo unspecified) | – | 11.5 µM | – | – | – | 88% | 54% |
| COc1ccc(-n2nc(C#CC(C)N(O)C(N)=O)cc2-c2ccc(C)cc2)cc1 (stereo unspecified) | 9.4 µM | 1.4 µM | 10% | – | – | – | – |
| CCC(=O)N(O)CC#Cc1cc(-c2ccc(C)cc2)n(-c2ccc(OC)cc2)n1 | – | 0.06 µM | – | 100% | 79% | – | – |
| COc1ccc(-n2nc(C#CC(C)N(O)C(=O)C(F)(F)F)cc2-c2ccc(C)cc2)cc1 (stereo unspecified) | 0.05 µM | 0.19 µM | – | – | – | – | – |
| COc1ccc(-n2nc(C#CCN(O)C(=O)c3ccncc3)cc2-c2ccc(C)cc2)cc1 | – | 5.5 µM | – | 89% | 17% | – | – |
| COc1ccc(-n2nc(C#CC(C(C)C)N(O)C(N)=O)cc2-c2ccc(C)cc2)cc1 (stereo unspecified) | 4.6 µM | 1.2 µM | – | – | 29% | – | – |
| CCOC(=O)C(=O)N(O)C(C)C#Cc1cc(-c2ccc(C)cc2)n(-c2ccc(OC)cc2)n1 (stereo unspecified) | – | 3.4 µM | – | 71% | 66% | – | – |
| COc1ccc(-n2nc(C#CCN(O)C(=O)c3ccccc3)cc2-c2ccc(C)cc2)cc1 | – | – | – | 100% | 52% | – | – |
| CCc1ccc(-c2cc(C#CC(C)N(O)C(C)=O)nn2-c2ccc(OC)cc2)cc1 (stereo unspecified) | 0.06 µM | 0.34 µM | – | – | – | – | – |
| CCc1ccc(-c2cc(C#CC(C)N(O)C(=O)CCl)nn2-c2ccc(OC)cc2)cc1 (stereo unspecified) | – | 1.7 µM | – | 100% | – | – | 86% |
| CCc1ccc(-c2cc(C#CC(C)N(O)C(=O)OC)nn2-c2ccc(OC)cc2)cc1 (stereo unspecified) | – | 0.75 µM | – | 78% | 21% | – | – |
| CCC(C#Cc1cc(-c2ccc(C)cc2)n(-c2ccc(OC)cc2)n1)N(O)C(N)=O (stereo unspecified) | 15.9 µM | 2.1 µM | – | – | 22% | – | – |
| COc1ccc(-n2nc(C#CC(C)N(O)C(N)=O)cc2-c2ccc(Cl)cc2)cc1 (stereo unspecified) | – | 6.2 µM | – | – | – | – | 0% |
| COc1ccc(-n2nc(C#CCN(O)C(N)=O)cc2-c2ccc(Cl)cc2)cc1 | – | – | – | – | 9% | – | 0% |
| CCOC(=O)CCC(=O)N(O)C(C)C#Cc1cc(-c2ccc(CC)cc2)n(-c2ccc(OC)cc2)n1 (stereo unspecified) | – | 14 µM | – | – | 3% | 97% | 52% |
| CCc1ccc(-c2cc(C#CC(C)N(O)C(=O)C(C)C)nn2-c2ccc(OC)cc2)cc1 (stereo unspecified) | – | 0.18 µM | – | – | – | 93% | – |
| COc1ccc(-n2nc(C#CC(C)N(O)C(=O)c3ccco3)cc2-c2ccc(C)cc2)cc1 (stereo unspecified) | – | – | – | – | – | 70% | 61% |
| COc1ccc(-n2nc(C#CC(C)N(O)C(=O)N3CCCCC3)cc2-c2ccc(Cl)cc2)cc1 (stereo unspecified) | – | – | 44% | 76% | – | – | – |
| CCC(C#Cc1cc(-c2ccc(Cl)cc2)n(-c2ccc(OC)cc2)n1)N(O)C(N)=O (stereo unspecified) | – | 70.4 µM | 0% | 91% | – | – | – |
| COC(=O)N(O)C(C)C#Cc1cc(-c2ccc(C)cc2)n(-c2ccc(OC)cc2)n1 (stereo unspecified) | 0.14 µM | 0.49 µM | – | – | – | – | – |

Reference: ChEMBL document CHEMBL1131670, “N-hydroxyurea and hydroxamic acid inhibitors of cyclooxygenase and 5-lipoxygenase” (Bioorg Med Chem Lett, 1999)
